In patent US8475772B2, “Peptide-based oral care surface reagents for personal care” (E I du Pont de Nemours and Company, priority 2003, dated 2013):
Several values for one entry are separate records, joined by “and”; a condition that tells them apart may be missing. Identical values can stand only once. Where no end group is shown, it is not given here.

Tests used:
[1] = Phage ELISA on hair surfaces; type: binding, human; conditions: for Hair A450: phage clone on hair, 37° C. 15 min, anti-M13 HRP, mean of at least three replicates
Method: (§1) Enzyme-linked immunosorbent assay (ELISA) was used to evaluate the hair-binding specificity of selected phage-peptide clones. Phage-peptide clones identified in Examples 1 and 2 along with a randomly chosen control G-F9, KHGPDLLRSAPR (given as SEQ ID NO:63) were amplified. More than 10^14 pfu phages were added to pre-blocked hair surfaces.
(§2) A unique hair or pig skin-bottom 96-well apparatus was created by applying one layer of Parafilm® under the top 96-well block of a Minifold I Dot-Blot System (Schleicher & Schuell, Inc., Keene, N.H.), adding hair or a layer of hairless pig skin on top of the Parafilm® cover, and then tightening the apparatus. For each clone to be tested, the hair-covered well was incubated for 1 h at room temperature with 200 μL of blocking buffer, consisting of 2% non-fat dry milk (Schleicher & Schuell, Inc.) in TBS. A second Minifold system with pig skin at the bottom of the wells was treated with blocking buffer simultaneously to serve as a control. The blocking buffer was removed by inverting the systems and blotting them dry with paper towels. The systems were rinsed 6 times with wash buffer consisting of TBST-0.05%. The wells were filled with 200 μL of TBST-0.5% containing 1 mg/mL BSA and then 10 μL (over 10^12 copies) of purified phage stock was added to each well. The samples were incubated at 37° C. for 15 min with slow shaking. The non-binding phage was removed by washing the wells 10 to 20 times with TBST-0.5%. Then, 100 μL of horseradish peroxidase/anti-M13 antibody conjugate (Amersham USA, Piscataway, N.J.), diluted 1:500 in the blocking buffer, was added to each well and incubated for 1 h at room temperature. The conjugate solution was removed and the wells were washed 6 times with TBST-0.05%. TMB substrate (200 μL), obtained from Pierce Biotechnology (Rockford, Ill.) was added to each well and the color was allowed to develop for between 5 to 30 min, typically for 10 min, at room temperature. Then, stop solution (200 μL of 2 M H2SO4) was added to each well and the solution was transferred to a 96-well plate and the A450 was measured using a microplate spectrophotometer (Molecular Devices, Sunnyvale, Calif.). The resulting absorbance values, reported as the mean of at least three replicates, and the standard error of the mean (SEM) are given in Table 10.

[2] = Phage ELISA on pig skin surfaces (specificity control); type: binding; conditions: for Pig Skin A450: phage clone on pig skin, 37° C. 15 min, anti-M13 HRP, mean of at least three replicates
Method: as §1, §2

[3] = Interfiber friction test, low load, against another single hair fiber; design: species or system human; conditions: mean of fibers; normal force 8.5 mg
Method: (§3) IL) in distilled water. The aqueous solution was mixed at 7000 rpm for 4 min using a Silverson […] High Shear Laboratory Mixer (Silverson Machines, Inc., East Longmeadow, Mass.) with a general purpose disintegrating head and a 0.95 cm mini-micro tubular frame. A 0.5% solution of Dow Corning® 929 Cationic Emulsion (Dow Corning Corp., Midland, Mich.), a commercial conditioning agent, in distilled water was prepared using identical mixing conditions. European dark brown hair swatches (International Hair Importers and Products) were cleaned before testing by immersing in isopropanol for 30 min, then washing 10 times with distilled water. Single hair fibers from these swatches were sent to Textile Research Institute (TRI), Princeton, N.J., for friction testing. […] Frictional force measurements of treated hair fibers were measured by the Interfiber friction test using a single-fiber friction apparatus, as described by […] et al. (J. Appl. Polymer Sci., 85:394-414 (2002)). Hair fibers were evaluated at high normal forces (high load) (0.74 g) against a chromed steel wire, crosshead speed of 1 mm/min, using an Instron Tensile Testing machine. Low normal forces (low load) (8.5 mg) were measured against another single hair fiber using the TRI/ScanTM Surface Force Analyzer (Textile Research Institute). […]

[4] = Fiber friction test, high load, against chromed steel wire; design: species or system human; conditions: normal force 0.74 g
Method: as §3

[5] = Titer-based phage binding assay on normal hair; design: species or system human; conditions: output pfu retained by 10 mg normal hair; input 10^14 pfu of phage clone; acid-eluted phage
Method: Phage clones displaying specific peptides were used for comparing the binding characteristics of different peptide sequences. A titer-based assay was used to quantify the phage binding. This assay measures the output pfu retained by 10 mg of hair surfaces, having a signal to noise ratio of 10^3 to 10^4. The input for all the phage clones was 10^14 pfu. It should be emphasized that this assay measures the peptide-expressing phage particle, rather than peptide binding.
Normal hairs were cut into 0.5 cm lengths and 10 mg of the cut hair was placed in each well of a 96-well filter plate (Qiagen). Then, the wells were filled with blocking buffer containing 1 mg/mL BSA in TBST-0.5% and incubated for 1 h at 4° C. The hairs were washed 5 times with TBST-0.5%. The wells were then filled with 1 mL of TBST-0.5% containing 1 mg/mL BSA and then purified phage clones (10^14 pfu) were added to each well. The hair samples were incubated for 15 min at room temperature and then washed 10 times with TBST-0.5%. The hairs were transferred to a clean well and 1.0 mL of a non-specific elution buffer, consisting of 1 mg/mL BSA in 0.2 M Glycine-HCl at pH 2.2, was added to each well. The samples were incubated for 10 min and then 160 μL of neutralization buffer (1 M Tris-HCl, pH 9.2) was added to each well. The eluted phages from each well were transferred to a new tube for titering and sequencing analysis.
To titer the bound phages, the eluted phage was diluted with SM buffer to prepare 10-fold serial dilutions of 10^1 to 10^8. A 10 μL aliquot of each dilution was incubated with 200 μL of mid-log phase E. coli ER2738 (New England BioLabs), and grown in LB medium for 20 min and then mixed with 3 mL of agarose top (LB medium with 5 mM MgCl2, and 0.7% agarose) at 45° C. This mixture was spread onto a LB medium/IPTG/Xgal plate (LB medium with 15 g/L agar, 0.05 g/L IPTG, and 0.04 g/L Xgal) and incubated overnight at 37° C.

[6] = MB50 ELISA of biotinylated peptides on hair; type: binding, human; conditions: for EC50: biotinylated peptide with C-terminal amidated cysteine; for binding affinity for hair (in words): respective substrate hair
Method: (§4) Hair-binding and skin-binding peptides were synthesized by Syn Pep Inc. (Dublin, Calif.). The peptides were biotinylated by adding a biotinylated lysine residue at the C-terminus of the amino acid binding sequences for detection purposes and an amidated cysteine was added to the C-terminus of the sequence.
(§5) For hair samples, the procedure used was as follows. The setup of the surface specific 96-well system used was the same as that described in Example 5. Briefly, the 96-wells with hair or pig skin surfaces were blocked with blocking buffer (SUPERBLOCK™ from Pierce Chemical Co., Rockford, Ill.) at room temperature for 1 h, followed by six washes with TBST-0.5%, 2 min each, at room temperature. Various concentrations of biotinylated, binding peptide were added to each well, incubated for 15 min at 37° C., and washed six times with TBST-0.5%, 2 min each, at room temperature. Then, streptavidin-horseradish peroxidase (HRP) conjugate (Pierce Chemical Co.) was added to each well (1.0 μg per well), and incubated for 1 h at room temperature. After the incubation, the wells were washed six times with TBST-0.5%, 2 min each at room temperature. Finally, the color development and the measurement were performed as described in Example 5.
(§6) The results were plotted as A450 versus the concentration of peptide using GraphPad Prism 4.0 (GraphPad Software, Inc., San Diego, Calif.).

[7] = MB50 ELISA of biotinylated peptides on pig skin; type: binding; conditions: for EC50: Substrate Pig Skin, biotinylated peptide with C-terminal amidated cysteine; for binding affinity for skin (in words): pig skin
Method: as §4, §5
For the measurement of MB50 of the peptide-skin complexes, the following procedure was used. First, the pigskin was treated to block the endogenous biotin in the skin. This was done by adding streptavidin to the blocking buffer. After blocking the pigskin sample, the skin was treated with D-biotin to block the excess streptavidin binding sites. The remaining steps were identical to those used for the hair samples.
as §6

[8] = Peptide competition ELISA on normal hair; type: binding, human
Method: The purpose of this Example was to test the peptide binding site specificity and affinity of the hair-binding peptide D21 using a competition ELISA. The ELISA assay only detects phage particles that remain bound to the hair surface.
The synthetic hair-binding peptide D21, given as SEQ ID NO:46, was synthesized by SynPep (Dublin, Calif.). As a control, an unrelated synthetic skin-binding peptide, given as SEQ ID NO:61, was added to the system. The experimental conditions were similar to those used in the ELISA method described in Example 5. Briefly, 100 μL of Binding Buffer (1×TBS with 0.1% Tween®20 and 1 mg/mL BSA) and 10^11 pfu of the pure D21 phage particles were added to each well of the 96-well filter plate, which contained a sample of normal hair. The synthetic peptide (100 μg) was added to each well (corresponding to concentration of 0.8 mM). The reactions were carried out at room temperature for 1 h with gentle shaking, followed by five washes with TBST-0.5%. The remaining steps were identical to the those used in the ELISA method described in Example 5. Each individual ELISA test was performed in triplicate; the values in Table 11 are the means of the triplicate determinations.

Substance	Hair A450 [1]	Pig Skin A450 [2]	Phage Titer [5]	also measured
AKTHKHPAPSYS (Hair-binding peptide) [Clone C13]	0.375	0.024	–	–
Conditioner: SEQ ID NO:46 covalently linked to behenyl alcohol; tested at 0.25% with 1.5% lecithin in water (RTNAADHPAAVT; also: covalently linked to behenyl alcohol, site not given here)	–	–	–	Friction Force Ff, Low Load, Mean [3]: 0.304 mg; Friction Force Ff, High Load, Mean ([4]; mean of fibers): 0.055 g; Friction Force Ff, High Load ([4]; single fibers 1-4): 0.041 g and 0.057 g and 0.070 g and 0.051 g
DLHTVYH [Clone A]	–	–	7.50 × 10^4	–
EQISGSLVAAPW (Hair-binding peptide) [Clone A5]	0.431	0.256	–	–
GPHDTSSGGVRPNLHHTSKKEKRENRKVPFYSHSVTSRGNV (Hair-binding peptide) [Clone D5]	0.652	0.104	1.67 × 10^8	–
HIKPPTR [Clone B]	–	–	1.21 × 10^5	–
HLTVPWRGGGSAVPFYSHSQITLPNH (Hair-binding peptide) [Clone F]	–	–	1.11 × 10^6	–
HPMSAPR (Hair-binding peptide) [Clone I]	–	–	1.17 × 10^6	–
HPVWPAI [Clone D]	–	–	8.20 × 10^4	–
KHGPDLLRSAPR (Control peptide) [Clone G-F9, reference compound]	0.074	−0.137	–	–
KHPTYRQ [Clone H]	–	–	1.30 × 10^6	–
LGIPQNL [Clone D39]	0.685	0.086	–	–
LPRIANTWSPS [Clone F35]	–	–	–	EC50 ([6]; Substrate Bleached Hair): 3000 nM; binding affinity for hair (in words) [6]: high
MHAHSIA [Clone A36]	0.585	0.173	–	–
MPKYYLQ [Clone J]	–	–	1.24 × 10^6	–
MPLYYLQ [Clone E]	–	–	1.70 × 10^5	–
NSPGYQADSVAIG (Hair-binding peptide) [Clone D30]	0.414	0.287	–	–
RTNAADHPAAVT [Clone D21]	1.051	0.04	–	EC50 [7]: 40000 nM; binding affinity for skin (in words) [7]: relatively low; EC50 ([6]; Substrate Normal Hair): 2000 nM; binding affinity for hair (in words) [6]: high; selectivity for hair compared to pig skin ([1]; phage ELISA hair vs pig skin): highest selectivity for hair; binding affinity for hair (in words) ([1]; phage ELISA, versus control G-F9): very strong affinity for hair; affinity for pig skin (in words) ([2]; phage ELISA): very low affinity for pig skin; A450 ([8]; 10^11 pfu D21 phage on normal hair, synthetic peptide 100 μg per well (0.8 mM), mean of triplicate): 1.878; competition with phage clone D21 for hair binding sites (in words) ([8]; synthetic peptide 0.8 mM): does compete with the phage clone D21 for the same binding sites on the hair surface
SLNWVTIPGPKI (Hair-binding peptide) [Clone C10]	0.542	0.032	–	–
TAATTSP [Clone B1]	0.42	0.127	–	–
TDMQAPTKSYSN (Hair-binding peptide) [Clone C5]	0.548	0.047	–	–
TPALDGLRQPLR (Hair-binding peptide) [Clone C18]	0.34	0.132	–	–
TPFHSPENAPGS [SEQ ID NO: 61]	–	–	–	EC50 [7]: 700 nM; binding affinity for skin (in words) [7]: high
TPPELLHGDPRS [Clone I-B5]	–	–	–	EC50 [7]: > 100000 nM; binding affinity for skin (in words) [7]: relatively low; EC50 ([6]; Substrate Normal and Bleached Hair): 300 nM; binding affinity for hair (in words) [6]: high
